Measurements published in EP4741374A1, “TREPROSTINIL DERIVATIVE, AND PREPARATION METHOD THEREFOR AND USE THEREOF” (CF PharmTech HongKong Limited, priority 2023, dated 2025).
“Also recorded” adds a separate entry of the source. Read-outs that look alike come from different tables or passages of the source.

Assays:
[1] = target: T1, IP receptor (Homo sapiens, UniProt P43119); test: In-vitro agonist activity on IP receptor, FLIPR calcium test in IP/HEK293 cells; type: cell-based; settings: 10 concentrations, 10-fold dilutions
T1 construct: host or cells: HEK293 (IP/HEK293 cell line)
Experimental: The specific method is as follows: The IP/HEK293 cell line was provided by WuXi AppTec (Shanghai) Co., Ltd. Well-grown IP/HEK293 cells were taken out from the incubator, the culture solution was aspirated, the cells were washed with D-PBS and digested with trypsin EDTA, and then added with a cell culture solution, and the cells were fully suspended by repeated pipetting. The cells were centrifuged at room temperature, the supernatant was aspirated, a culture medium was added, and the cells were resuspended by repeated pipetting with a sterile pipette. After counting living cells with Vi-CELL™, 20 µL (20,000 cells/well) of cell suspension was added to a 384-well cell culture plate and incubated in a 5% CO2 incubator at 37°C overnight. 1 mL of FLIPR test buffer was added with 77 mg of probenecid to prepare 250 mM probenecid solution. After thawing a bottle of 2XFluo-4 DirectTM (F10471), the bottle was added with 10 mL of FLIPR test buffer containing 500 uM AEBSF, and each 10 mL of Fluo-Direct was added with 0.2 mL of probenecid, with a final concentration of 2.5 mM. The mixture was vortexed and then allowed to stand in the dark for more than 5 minutes. Each compound was placed in a water bath at 25°C for 30 minutes. Then, these compounds were sequentially diluted 10-fold with Bravo, with a total of 10 concentrations, for testing. 750 nL of each compound was transferred to a 384-well compound plate with ECHO. Then, the compound plate was added with 30 µL of detection buffer. The 384-well cell culture plate was taken out from the incubator, the culture medium was discarded, and 20 µL of test buffer and 20 µL of 2X Fluo-4 DirectTM No-Wash loading buffer were added with a pipette. The cell culture plate was incubated in a 5% CO2 incubator at 37°C for 50 minutes and incubated at room temperature for 10 minutes. The cell culture plate, the compound plate and a tip box were placed into FLIPR, FLIPRTETRA test program was operated, 10 µL of reference compound and 10 µL of test compound were aspirated from the compound plate to the cell culture plate, fluorescence signals were read, and then data were processed. The data were analyzed by using Prism.

[2] = tested on: SD rats; test: U46619-induced rat acute pulmonary arterial pressure rise model, airway nebulized administration (RVSP); type: in vivo; settings: for antihypertensive effect: equimolar to 13.3 µg/kg TRE; for antihypertensive effect and duration, overall: 1 to 48 hours after airway nebulized administration
Excerpt: U46619 was a stable analogue of thromboxane A2 (TXA2), which activated the downstream IP3 signal by binding to the thromboxane A2 receptor to promote vasoconstriction, platelet aggregation and the like. Influences of compound C16-TR and equimolar compounds Ia-1, Ia-2, Ia-3, R-11 and R-12 at different time points after airway nebulized administration on pulmonary hypertension of rats were studied by using the U46619-induced rat pulmonary arterial pressure rise mode, which were compared with that of equimolar TRE after airway nebulized administration.
Preparation of test sample: a required amount of compound TRE was taken and added into a sterile EP tube, and each tube was added with an appropriate amount of DMSO for dissolution to prepare a stock solution (100 mg/mL). Compounds C16-TR, la-1, la-2, Ia-3, R-11 and R-12 were added with appropriate amounts of DMSO and dissolved in the original bottles to prepare stock solutions (100 mg/mL), and then the stock solutions were transferred to sterile EP tubes. Each above stock solution was hermetically stored in the dark in a refrigerator at 4°C. When the stock solution was tested, an appropriate amount of stock solution was taken and added into a new sterile EP tube, and diluted with DMSO and 1×PBS to a target concentration (working solution) wherein the solvent was 3% DMSO/1×PBS.
Preparation of modeling agent: 900 µL of methyl acetate was added into an original bottle of U46619 and mixed evenly to prepare 1 mg/mL(1 µg/µL) stock solution, which was divided into 10 µL (1 µg/µL) per sterile EP tube and stored in a refrigerator at -20°C. On the day of modeling, the stock solution was taken out and balanced at room temperature and constant temperature, and each tube was added with an appropriate amount of 0.9% sodium chloride solution (sterile) to be diluted 20-fold, so as to prepare a working solution with a concentration of 50 ng/µL.
Airway nebulized administration dosages of compound TRE and the test compounds were equimolar quantities calculated based on TRE. The dosage of compound TRE group (n=3) was 13.3 µg/kg, the dosage of compound C16-TR group (n=5) was 20.9 µg/kg, the dosage of compound Ia-1 group (n=3) was 21.2 µg/kg, the dosage of compound Ia-2 group (n=6) was 22.1 µg/kg, the dosage of compound Ia-3 group (n=6) was 23.1 µg/kg, the dosage of compound R-11 group (n=3) was 21.9 µg/kg, and the dosage of compound R-12 group (n=3) was 21.7 µg/kg. There were also a model control group (n=1) and a solvent control group (n=3).
The SD rats were injected with U46619 (25 µg /kg) through the left jugular vein at different time points after airway nebulized administration, the peak value of RVSP rise after injection with U46619 was observed and recorded, and the inhibition percentage on the RVSP rise was calculated by comparing with the basic RVSP value. The rats in the model control group were administered with U46619 by intravenous injection immediately after successful catheterization and measurement of the basic RVSP. RVSP of all animals were detected by right cardiac catheterization, and respiratory conditions of the animals were observed generally. Table-2 Time points of administrating U46619 in various groups

[3] = target: T2, EP2 receptor (Homo sapiens, UniProt P43116); test: Competitive binding to EP2 receptor against radiolabeled ligand 3H-PGE2; settings: 8 concentrations from 10 µM, 10-fold dilutions
T2 construct: purchased Merck HTS185M
Experimental: This experiment was carried out in 96-well plates to evaluate the binding affinity of the compounds of the present invention (Ia-1, Ia-2 and Ia-3) to the prostaglandin EP2 receptor by testing their ability of competitive binding to the EP2 receptor with the radiolabeled ligand ^3H-PGE2. Treprostinil was used as control. MicroBeta2 was used to detect the number of ^3H captured, and Prism software was used to analyze data. The EP2 film (Merck, Cat# HT[…], batch number 2121326) was diluted with a buffer (50 mM Hepes, PH=7.4, 5 mM MgCl2, 1 mM CaCl2, 0.5% BSA) to a final concentration of 75 μg/mL. ^3H-PGE2 was diluted to 15 nM. Test compound and control compound solutions with an initial concentration of 10 μM were prepared, and subjected to 10-fold continuous gradient dilution, with a total of 8 concentrations for testing. 5%DMSO was used as a solvent control group. 1 μL of each compound solution was added into a corresponding position in the 96-well test plate, and each well was added with 50 μL of the EP2 film (about 3.75 μg/well), and added with 50 μ L of ^3H-PGE2. Then, the well plate was sealed, and incubated with shaking at 300 rpm at room temperature for 2 hours. After finishing the incubation, GF/C plates were filtered with Perkin Elmer Filtermate Harvester, and then each plate was washed with cold eluent for 4 times, and dried at 50°C for 1 hour. After drying, bottoms of wells of the filter plate were sealed with a PerkinElmer Unifilter-96 backing tape. 50 μL of Perkin Elmer Microscint O was added. The top of the filter plate was sealed with Perkin Elmer TopSeal-A sealing film. The number of ^3H captured was detected by MicroBeta2.

[4] = inhaled treprostinil; cited from earlier work
[5] = tested on: SD rats; test: U46619-induced rat acute pulmonary arterial pressure rise model, low-dose airway nebulized administration (RVSP); type: in vivo; settings: for Inhibition percentage on RVSP rise (%) (mean): 1 hour after low-dose airway nebulized administration (about 3 µg/kg, equimolar)
Excerpt: In this experiment, airway nebulized administration dosages of the compounds were about 1/7 of airway nebulized administration dosages in Experimental Example 5. By using a U46619-induced rat acute pulmonary arterial pressure rise model, antihypertensive effects of the compounds of the present invention after airway nebulized administration were further verified by reducing the administration dosages.
A model construction method was the same as that described in Experimental Example 5. In this experiment, dosages of groups were as follows: the dosage of compound C16-TR group was 3 µg/kg, and the dosages of equimolar compounds Ia-1, Ia-2 and Ia-3 were 3.0 µg/kg, 3.2 µg/kg and 3.3 µg/kg respectively.
The SD rats were anesthetized and then administered by airway nebulization, and then the basic right ventricular systolic pressure (RVSP) was measured by right cardiac catheterization. The SD rats were intravenously injected with U46619 (25 µg /kg) at 1 hour after airway nebulized administration of each compound, a peak value of RVSP rise after injection with U46619 was observed and recorded, and the inhibition percentage on the RVSP rise was calculated by comparing with the basic RVSP value. The number of experimental animals in each group was 1~2.

[6] = tested on: porcine esterase; test: Hydrolysis conversion rate of compounds into TRE mediated by porcine esterase; settings: experiment (c); 0.2 mg/mL, 20 U porcine esterase, 38°C; 5 minutes to 2 hours
Experimental: This experiment was designed to evaluate the conversion rates of various compounds with different ester side chain structures into the TRE under the action of esterase.
The carbon number of the ester side chain of each compound was 10, wherein the alkyl side chains of R-05, R-06 and R-08 contained 1~3 oxygen atoms respectively. Each compound was dissolved in 20 mL of ethanol to prepare a 1 mg/ml test compound solution for later use. Then, 1 mL of the test compound solution was transferred into 4 mL of PBS aqueous solution to obtain 0.2 mg/mL test compound reaction solution. The reaction solution was added with 20 U (80 µL) of porcine esterase, shaken evenly and then incubated at 38°C. After a period of reaction, samples were taken according to the following time points: 10 minutes, 30 minutes, 1 hour and 2 hours. The conversion of the test compound into TRE was detected. The hydrolysis of each sample was calculated according to measured peak areas of the reactant and the product: [formula]
Sampling time points were: 20 minutes, 40 minutes, 1 hour and 2 hours.
Sampling time points were: 5 minutes, 15 minutes, 30 minutes, 1 hour and 2 hours.

[7] = tested on: subjects; settings: cited from earlier work
[8] = cited from earlier work
[9] = 16 hours after airway nebulized administration

T1 sequence (P43119 whole entry): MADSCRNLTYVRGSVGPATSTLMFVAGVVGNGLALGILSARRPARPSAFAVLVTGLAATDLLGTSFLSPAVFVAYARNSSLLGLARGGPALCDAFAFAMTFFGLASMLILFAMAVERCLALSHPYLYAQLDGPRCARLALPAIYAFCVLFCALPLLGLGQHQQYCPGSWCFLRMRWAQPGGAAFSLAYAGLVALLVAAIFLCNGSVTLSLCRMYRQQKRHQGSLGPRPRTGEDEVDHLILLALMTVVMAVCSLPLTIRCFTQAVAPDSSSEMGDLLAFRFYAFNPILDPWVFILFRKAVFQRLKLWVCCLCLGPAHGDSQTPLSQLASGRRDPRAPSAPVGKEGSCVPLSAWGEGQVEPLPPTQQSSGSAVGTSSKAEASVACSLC
T2 sequence (P43116 whole entry): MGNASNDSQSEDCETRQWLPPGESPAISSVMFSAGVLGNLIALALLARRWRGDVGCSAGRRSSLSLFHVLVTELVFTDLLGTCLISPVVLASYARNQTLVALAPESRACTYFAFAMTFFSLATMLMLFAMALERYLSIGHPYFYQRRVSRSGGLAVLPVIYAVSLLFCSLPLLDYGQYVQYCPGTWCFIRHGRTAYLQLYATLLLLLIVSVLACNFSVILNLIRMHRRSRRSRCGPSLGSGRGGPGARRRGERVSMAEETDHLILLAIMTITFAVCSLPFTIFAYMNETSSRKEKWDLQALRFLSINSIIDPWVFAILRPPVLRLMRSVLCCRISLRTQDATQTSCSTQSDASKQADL

Structure (SMILES) | agonist activity on IP receptor [1] | inhibition percentage on the RVSP rise ([2]; 13.3 µg/kg, 16 minutes after airway nebulized administration) | binding to the EP2 receptor (competition with 3H-PGE2) [3] | half-life [4] | antihypertensive effects compared with C16-TR ([2]; 1 hour and 6 hours after airway nebulized administration, equimolar doses) | antihypertensive effect [2, 9] | Inhibition percentage on RVSP rise (%) (mean) [5] | hydrolysis conversion rates (release of TRE) [6] | antihypertensive effect and duration, overall ([2]; equimolar doses) | antihypertensive effect ([5]; 1 hour after low-dose airway nebulized administration) | side effects ([7]; 170 µg/kg and 340 µg/kg) | side effects ([7]; low dose (54 µg/kg)) | physical stability in solution on long-term storage ([8]; HFA propellant with ethanol and DSPE-PEG2000, storage >1 week) | solubility in HFA propellant ([8]; content of ethanol lower than 13%) | reaction of dissolved compound with the alcohol solvent ([8]; dissolved state, ethanol) | antihypertensive effect ([2]; 24 hours after airway nebulized administration)
CCCCC[C@H](O)CC[C@@H]1[C@H]2Cc3cccc(OCC(=O)O)c3C[C@H]2C[C@H]1O [TRE, treprostinil] | strong agonist activity | about 39% | competitively inhibited the binding of the ligand ^3H-PGE2 to the EP2 receptor in a concentration-dependent manner | about 30 minutes | – | – | – | – | – | – | – | – | – | – | – | –
CCCCC[C@H](O)CC[C@@H]1[C@H]2Cc3cccc(OCC(=O)OCCCCCCOCCCCc4ccccc4)c3C[C@H]2C[C@H]1O [Compound Ia-1] | no agonist activity | – | no detectable binding | – | better than those of C16-TR | no antihypertensive effect | 67.67 | – | – | – | – | – | – | – | – | –
CCCCCCCCCCCCCCCCOC(=O)COc1cccc2c1C[C@H]1C[C@@H](O)[C@H](CC[C@@H](O)CCCCC)[C@H]1C2 [Compound C16-TR, treprostinil palmitate] | – | – | – | – | – | no antihypertensive effect | 5.49 | significantly prolong the hydrolysis conversion rates and release TRE slowly and steadily | long-term antihypertensive effects | no antihypertensive effect | developed cough and sore throat | no side effects such as cough or sore throat | could not remain soluble | could not be dissolved | generates ester exchange impurities with the alcohol solvent; also recorded: can react with ethanol, leading to substitution of the C16 ester by an ethyl ester | –
CCCCC[C@H](O)CC[C@@H]1[C@H]2Cc3cccc(OCC(=O)OCCCCCCCCCCOCCCCc4ccccc4)c3C[C@H]2C[C@H]1O [Compound Ia-3] | no agonist activity | – | no detectable binding | – | – | – | 83.49 | – | stronger antihypertensive effects than C16-TR and longer durations | – | – | – | – | – | – | obvious antihypertensive effects
